# Target: unphosphorylated-BTK kinase domain (UP-BTK), GST-tagged human BTK (389-659aa) (Homo sapiens (Human), UniProt Q06187)
# Test: BTK Kinase Lanthascreen Binding Assay
# Settings: compound, 50 nM Tracer 236, 2 nM anti-GST antibody, 60 minutes; pIC50 = negative log of the IC50 in molar
# Description: BTK Kinase Lanthascreen Binding Assay:
# A BTK kinase lanthascreen binding assay monitors compound binding to unphosphorylated-BTK kinase domain (UP-BTK), by competing with a fluorescent labeled tracer. […] Data were analyzed using Xlfit™ version 5.3 from ID Business Solutions (Guildford), Microsoft Excel add-in. pIC50 refers to the negative log of the IC50 in molar.
# Chain of unphosphorylated-BTK kinase domain (UP-BTK), GST-tagged human BTK (389-659aa) (Q06187 389-659): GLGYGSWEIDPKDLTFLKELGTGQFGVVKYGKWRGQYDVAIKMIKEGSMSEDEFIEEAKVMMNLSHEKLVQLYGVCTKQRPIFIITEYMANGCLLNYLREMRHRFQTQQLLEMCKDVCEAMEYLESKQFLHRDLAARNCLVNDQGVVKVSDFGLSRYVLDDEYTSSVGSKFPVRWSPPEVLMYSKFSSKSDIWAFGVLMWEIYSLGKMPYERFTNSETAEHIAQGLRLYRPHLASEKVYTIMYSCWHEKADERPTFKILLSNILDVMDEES
row,BTK_I_binding pIC50,SMILES
1,7.28,"CC(=O)N[C@H]1CC[C@@H](NC(=O)c2sc3nccc4c3c2NC(=O)N4c2ccc(Oc3ccccc3)cc2C)CC1 [Example 64, N-((1S,4S)-4-Acetamidocyclohexyl)-5-(2-methyl-4-phenoxyphenyl)-4-oxo-4,5-dihydro-3H-1-thia-3,5,8-triazaacenaphthylene-2-carboxamide]"
2,7.78,"C=CC(=O)N[C@@H]1CC[C@H](NC(=O)c2sc3nccc4c3c2NC(=O)N4c2ccc(Oc3ccccc3)cc2C)C1 [Example 68, N-((1S,3R)-3-acrylamidocyclopentyl)-5-(2-methyl-4-phenoxyphenyl)-4-oxo-4,5-dihydro-3H-1-thia-3,5,8-triazaacenaphthylene-2-carboxamide]"
3,7.73,"CCC(=O)N[C@@H]1CC[C@H](NC(=O)c2sc3nccc4c3c2NC(=O)N4c2ccc(Oc3ccccc3)cc2C)C1 [Example 69, 5-(2-Methyl-4-phenoxyphenyl)-4-oxo-N-((1S,3R)-3-propionamidocyclopentyl)-4,5-dihydro-3H-1-thia-3,5,8-triazaacenaphthylene-2-carboxamide]"
4,7.69,"CC(=O)N[C@@H]1CC[C@H](NC(=O)c2sc3nccc4c3c2NC(=O)N4c2ccc(Oc3ccccc3)cc2C)C1 [Example 70, N-((1S,3R)-3-Acetamidocyclopentyl)-5-(2-methyl-4-phenoxyphenyl)-4-oxo-4,5-dihydro-3H-1-thia-3,5,8-triazaacenaphthylene-2-carboxamide]"
5,7.07,"Cc1cc(Oc2ccccc2)ccc1N1C(=O)Nc2c(C(=O)N[C@H]3CC[C@@H](O)C3)sc3nccc1c23 [Example 74, N-((1S,3R)-3-Hydroxycyclopentyl)-5-(2-methyl-4-phenoxyphenyl)-4-oxo-4,5-dihydro-3H-1-thia-3,5,8-triazaacenaphthylene-2-carboxamide]"
6,7.30,"Cc1cc(Oc2ccccc2)ccc1N1C(=O)Nc2c(C(=O)N[C@H]3CC[C@@H](NC(=O)CN)C3)sc3nccc1c23 [Example 75, N-((1S,3R)-3-(2-Aminoacetamido)cyclopentyl)-5-(2-methyl-4-phenoxyphenyl)-4-oxo-4,5-dihydro-3H-1-thia-3,5,8-triazaacenaphthylene-2-carboxamide]"
7,6.61,"Cc1cc(Oc2ccccc2)ccc1N1C(=O)Nc2c(C(=O)N[C@H]3CC[C@@H](NC(=O)/C=C/CN(C)C)CC3)sc3nccc1c23 [Example 77, N-((1S,4S)-4-((E)-4-(Dimethylamino)but-2-enamido)cyclohexyl)-5-(2-methyl-4-phenoxyphenyl)-4-oxo-4,5-dihydro-3H-1-thia-3,5,8-triazaacenaphthylene-2-carboxamide]"
8,6.47,"Cc1cc(Oc2ccccc2)ccc1N1C(=O)Nc2c(C(=O)N[C@H]3CC[C@@H](NC(=O)/C=C/CN)CC3)sc3nccc1c23 [Example 79, N-((1S,4S)-4-((E)-4-Aminobut-2-enamido)cyclohexyl)-5-(2-methyl-4-phenoxyphenyl)-4-oxo-4,5-dihydro-3H-1-thia-3,5,8-triazaacenaphthylene-2-carboxamide]"
9,7.03,"Cc1cc(Oc2ccccc2)ccc1N1C(=O)Nc2c(C(=O)NC3CCCC3)sc3nccc1c23 [Example 81, N-Cyclopentyl-5-(*S)-(2-methyl-4-phenoxyphenyl)-4-oxo-4,5-dihydro-3H-1-thia-3,5,8-triazaacenaphthylene-2-carboxamide]"
10,5.35,"Cc1cc(Oc2ccccc2)ccc1N1C(=O)Nc2c(C(=O)NC3CCCC3)sc3nccc1c23 [Example 82, N-Cyclopentyl-5-(*R)-(2-methyl-4-phenoxyphenyl)-4-oxo-4,5-dihydro-3H-1-thia-3,5,8-triazaacenaphthylene-2-carboxamide]"
11,7.31,"N[C@@H]1CCC[C@H]1NC(=O)c1sc2nccc3c2c1NC(=O)N3c1ccc(Oc2ccccc2)cc1 [Example 91, N-((1R,2R)-2-Aminocyclopentyl)-4-oxo-5-(4-phenoxyphenyl)-4,5-dihydro-3H-1-thia-3,5,8-triazaacenaphthylene-2-carboxamide]"
12,6.10,"N[C@@H]1CCC[C@@H]1NC(=O)c1sc2nccc3c2c1NC(=O)N3c1ccc(Oc2ccccc2)cc1 [Example 98, N-((1S,2R)-2-Aminocyclopentyl)-4-oxo-5-(4-phenoxyphenyl)-4,5-dihydro-3H-1-thia-3,5,8-triazaacenaphthylene-2-carboxamide]"
13,7.03,"Cc1cc(Oc2ccccc2)ccc1N1C(=O)Nc2c(C(=O)N[C@H]3CC[C@@H](N(C)C)CC3)sc3nccc1c23 [Example 99, N-((1S,4S)-4-(Dimethylamino)cyclohexyl)-5-(*S)-(2-methyl-4-phenoxyphenyl)-4-oxo-4,5-dihydro-3H-1-thia-3,5,8-triazaacenaphthylene-2-carboxamide]"
14,8.37,"C=CC(=O)N[C@H]1CCC[C@H]1NC(=O)c1sc2nccc3c2c1NC(=O)N3c1ccc(Oc2ccccc2)cc1 [Example 104, N-((1R,2S)-2-acrylamidocyclopentyl)-4-oxo-5-(4-phenoxyphenyl)-4,5-dihydro-3H-1-thia-3,5,8-triazaacenaphthylene-2-carboxamide]"
15,8.06,"C=CC(=O)N[C@H]1CCCC[C@H]1NC(=O)c1sc2nccc3c2c1NC(=O)N3c1cccc(-c2ccccc2)c1 [Example 106, 5-([1,1′-Biphenyl]-3-yl)-N-((1R,2S)-2-acrylamidocyclohexyl)-4-oxo-4,5-dihydro-3H-1-thia-3,5,8-triazaacenaphthylene-2-carboxamide]"
16,7.23,"C=CC(=O)N[C@@H]1CC[C@H](NC(=O)c2sc3nccc4c3c2NC(=O)N4c2ccc(OC(C)C)cc2C)C1 [Example 110, N-((1S,3R)-3-Acrylamidocyclopentyl)-5-(4-isopropoxy-2-methylphenyl)-4-oxo-4,5-dihydro-3H-1-thia-3,5,8-triazaacenaphthylene-2-carboxamide]"

# Second part, the molecule before the results:
row,SMILES,BTK_I_binding pIC50
1,"CCC(=O)N[C@H]1CC[C@@H](NC(=O)c2sc3nccc4c3c2NC(=O)N4c2ccc(Oc3ccccc3)cc2C)CC1 [Example 65, 5-(2-Methyl-4-phenoxyphenyl)-4-oxo-N-((1S,4S)-4-propionamidocyclohexyl)-4,5-dihydro-3H-1-thia-3,5,8-triazaacenaphthylene-2-carboxamide]",7.20
2,"Cc1cc(Oc2ccccc2)ccc1N1C(=O)Nc2c(C(=O)N[C@H]3CC[C@@H](N(C)C)CC3)sc3nccc1c23 [Example 66, N-((1S,4S)-4-(Dimethylamino)cyclohexyl)-5-(2-methyl-4-phenoxyphenyl)-4-oxo-4,5-dihydro-3H-1-thia-3,5,8-triazaacenaphthylene-2-carboxamide]",6.56
3,"Cc1cc(Oc2ccccc2)ccc1N1C(=O)Nc2c(C(=O)N[C@H]3CC[C@@H](NC(=O)CN(C)C)C3)sc3nccc1c23 [Example 71, N-((1S,3R)-3-(2-(Dimethylamino)acetamido)cyclopentyl)-5-(2-methyl-4-phenoxyphenyl)-4-oxo-4,5-dihydro-3H-1-thia-3,5,8-triazaacenaphthylene-2-carboxamide]",7.38
4,"CNCC(=O)N[C@@H]1CC[C@H](NC(=O)c2sc3nccc4c3c2NC(=O)N4c2ccc(Oc3ccccc3)cc2C)C1 [Example 72, 5-(2-Methyl-4-phenoxyphenyl)-N-((1S,3R)-3-(2-(methylamino)acetamido)cyclopentyl)-4-oxo-4,5-dihydro-3H-1-thia-3,5,8-triazaacenaphthylene-2-carboxamide]",7.02
5,"Cc1cc(Oc2ccccc2)ccc1N1C(=O)Nc2c(C(=O)N[C@H]3CC[C@@H](N(C)C)C3)sc3nccc1c23 [Example 73, N-((1S,3R)-3-(Dimethylamino)cyclopentyl)-5-(2-methyl-4-phenoxyphenyl)-4-oxo-4,5-dihydro-3H-1-thia-3,5,8-triazaacenaphthylene-2-carboxamide]",7.00
6,"Cc1cc(Oc2ccccc2)ccc1N1C(=O)Nc2c(C(=O)N[C@H]3CC[C@@H](N)C3)sc3nccc1c23 [Example 76, N-((1S,3R)-3-Aminocyclopentyl)-5-(2-methyl-4-phenoxyphenyl)-4-oxo-4,5-dihydro-3H-1-thia-3,5,8-triazaacenaphthylene-2-carboxamide]",6.88
7,"CNC/C=C/C(=O)N[C@H]1CC[C@@H](NC(=O)c2sc3nccc4c3c2NC(=O)N4c2ccc(Oc3ccccc3)cc2C)CC1 [Example 78, 5-(2-Methyl-4-phenoxyphenyl)-N-((1S,4S)-4-((E)-4-(methylamino)but-2-enamido)cyclohexyl)-4-oxo-4,5-dihydro-3H-1-thia-3,5,8-triazaacenaphthylene-2-carboxamide]",6.55
8,"N[C@H]1CCC[C@H]1NC(=O)c1sc2nccc3c2c1NC(=O)N3c1ccc(Oc2ccccc2)cc1 [Example 97, N-((1R,2S)-2-Aminocyclopentyl)-4-oxo-5-(4-phenoxyphenyl)-4,5-dihydro-3H-1-thia-3,5,8-triazaacenaphthylene-2-carboxamide]",7.70
9,"Cc1cc(Oc2ccccc2)ccc1N1C(=O)Nc2c(C(=O)N[C@H]3CC[C@@H](N(C)C)CC3)sc3nccc1c23 [Example 100, N-((1S,4S)-4-(Dimethylamino)cyclohexyl)-5-(*R)-(2-methyl-4-phenoxyphenyl)-4-oxo-4,5-dihydro-3H-1-thia-3,5,8-triazaacenaphthylene-2-carboxamide]",5.86

# Same assay, conditions: read-out: BTK_I_binding pIC50 (converted)
row,SMILES,IC50 [nM]
1,"Cc1cc(Oc2ccccc2)ccc1N1C(=O)Nc2c(C(=O)N[C@H]3CC[C@H](O)CC3)sc3nccc1c23 [Example 86, N-((1R,4R)-4-Hydroxycyclohexyl)-5-(*R)-(2-methyl-4-phenoxyphenyl)-4-oxo-4,5-dihydro-3H-1-thia-3,5,8-triazaacenaphthylene-2-carboxamide]",229
2,"C=CC(=O)N[C@@H]1CC[C@H](NC(=O)c2sc3nccc4c3c2NC(=O)N4c2ccc(Oc3ccccc3)cc2)C1 [Example 117, N-((1S,3R)-3-Acrylamidocyclopentyl)-4-oxo-5-(4-phenoxyphenyl)-4,5-dihydro-3H-1-thia-3,5,8-triazaacenaphthylene-2-carboxamide]",15.8

# From US10934310B2, “Inhibitors of Bruton's tyrosine kinase and method of their use” (JANSSEN PHARMACEUTICA NV, priority 2015, dated 2021)
